# Experimental data published in patent publication US9713591B2, “Composition of matter comprising liposomes embedded in a polymeric matrix and methods of using same” (Yissum Research Development Company of the Hebrew …, priority 2008, dated 2017).
# “And” between values parts separate entries of the source, which are not always exact repeats. Identical values can stand only once. Counter-ions that a name gives are not always drawn.
# How the values were obtained:
# [1] = tested on: male Swiss-Webster mice; test: Analgesic efficacy in mouse model: electrical stimulation of abdominal skin, vocalization threshold, analgesia score and duration; assay type: in vivo; parameters: key to analgesia score, 15 min / analgesia score, 30 min / analgesia score, 45 min / analgesia score, 60 min / analgesia score, 75 min / analgesia score, 90 min / analgesia score, 105 min / analgesia score, 120 min / analgesia score, 135 min: 1 = analgesia; 0 = no analgesia; 10 = partial analgesia
# From the text: Analgesic efficacy in male Swiss Webster mouse model: Testing for analgesia was done by electrical stimulation of mice skin as described elsewhere (G. J. Grant et al, Pharmaceutical Research, 18, no 3, 336-343, 2001). Pain as electrical stimulation at the desired intensity was inflicted to the skin of shaved mice abdomen. The current generator (model S48, Grass Instruments (W. Warwick, R.I. USA) was used. Mice (male Swiss-Webster, 26±3 gr (n=7 per group) were used. The mice were shaved the hair overlying the abdomen and tested prior to injection to determine the Individual vocalization threshold of each mice. Than the mice were injected with (0.3-0.4 ml of one of the following: free bupivacaine, or LMVV-BUP or various LMVV entrapped in Ca-alginate or chitosan-oxalate cross linked hydrogels through 30G needle. The analgesia duration was than followed as specified in the experiment itself. All experiments were approved and ratified by the HUJI ethic committee.
# Analysis of the in vivo mice analgesia: A numerical score to the spreadsheet was introduced for the evaluation of the analgesic effect of various liposome preparations performance in vivo: For each time period (e.g. 4 hrs, 8 hrs etc) a numeric value to each mouse in the experiment was given. If the anesthesia was complete the numeric value given was 1.0; when analgesia was partial (incomplete) it received the numeric value of 10.0 in the Table 1 and in other Tables a score of 0.5 and for no anesthesia the numeric score was 0. The mean for each subgroup was calculated separately (i.e. 1% 300 μl, 2%[…]).
# Testing for analgesia was done by electrical stimulation of the skin directly overlying the abdomen at the site of injection using a current generator (model S48, Grass Instruments) as described in Grant et al 2001. (G. J. Grant et al, pharmaceutical research, vol 18, no 3, 336-343, 2001), and in Methods above.
# Mice (male Swiss-Webster 26±3 gr) were tested prior to injection to determine the vocalization threshold than were injected with liposomal BUP or free BUP than followed by determination of analgesia duration (The duration of the main in vivo screening study was 2 days and started after a preliminary study using two different injection volumes of formulation #4 (referred to as the PILOT in Table 9A) was performed. […]
# Testing for analgesia was performed by electrical stimulation of mice skin as described elsewhere (G. J. Grant et al, Pharmaceutical Research, 18, no 3, 336-343, 2001). Pain by electrical stimulation at the desired intensity was applied to the skin of shaved mice abdomen. The current generator (model S48, Grass Instruments (W. Warwick, R.I. USA) was used. Mice (male Swiss-Webster, 26±3 gr (n=8 per group) were used. The mice were shaved the hair overlying the abdomen and tested prior to injection to determine the Individual vocalization threshold of each mice. Than the mice were injected through 30G needle with 0.25 ml of one of the following formulation: • 1—Alginate beads containing LMVV-BUP (010609), were stored at 4 c for 2 months in 0.5% bup, PH=5.5 (see B3). The external solution of the beads were removed before injection without washing them. • 2—Alginate beads containing LMVV-BUP (010609), were stored at 4 c for 2 months in 2% bup, PH=5.5 (see B3). The external solution of the beads were removed and the beads washed (2.5 ml saline×5) before injection. • 3—Alginate beads containing LMVV-BUP (010609), were stored at 4 c for 2 months in 1% bup, PH=5.5 (see B3). The external solution of the beads were removed before injection without washing them. • 4—Alginate beads containing LMVV-BUP (010609), were stored at 4 c for 2 months in saline, PH=5.5 (see B3). The external solution of the beads were removed before injection without washing them. • 5—LMVV-BUP (010609) were stored at 4 c for 2 months in saline PH=5.5. • 6—BLANK: Aginate beads containing LMVV without bup, were stored at 4 c for 2 months in saline PH=5.5. […]
# [2] = tested on: male Swiss-Webster mice; details: previously determined (Grant et al. 2004, U.S. Pat. No. 6,162,462); cited from earlier work
# [3] = cited from earlier work
# [4] = Bup Conc 0.25%, Volume 150 ul, 0.375 mg Bup, individual mice
# [5] = Bup Conc 0.25%, Volume 150 ul, 0.375 mg Bup, individual mice, hydrochloride
# [6] = Bup Conc 0.25%, Volume 300 ul, 0.75 mg Bup, individual mice
# [7] = Bup Conc 0.25%, Volume 300 ul, 0.75 mg Bup, individual mice, hydrochloride
# [8] = Bup Conc 0.50%, Volume 150 ul, 0.75 mg Bup, individual mice
# [9] = Bup Conc 0.50%, Volume 150 ul, 0.75 mg Bup, individual mice, hydrochloride
compound,measurement,setting,value
"CCCCN1CCCCC1C(=O)Nc1c(C)cccc1C (stereo not shown) [Standard Bupivacaine, Bupivacaine hydrochloride]","analgesia score, 15 min",[1]; [4],1
same,"analgesia score, 30 min",[1]; [4],1
same,"analgesia score, 45 min",[1]; [4],1
same,"analgesia score, 90 min",[1]; [4],0
same,"analgesia score, 60 min",[1]; [5],0 (5×) and 1 (2×) and 10
same,"analgesia score, 75 min",[1]; [5],0 (7×) and 10
same,"analgesia score, 15 min",[1]; [6],1
same,"analgesia score, 30 min",[1]; [6],1
same,"analgesia score, 45 min",[1]; [6],1
same,"analgesia score, 60 min",[1]; [6],1
same,"analgesia score, 135 min",[1]; [6],0
same,"analgesia score, 75 min",[1]; [7],0 and 1 (7×)
same,"analgesia score, 90 min",[1]; [7],0 and 1 (5×) and 10 (2×)
same,"analgesia score, 105 min",[1]; [7],0 (5×) and 10 and 1 (2×)
same,"analgesia score, 120 min",[1]; [7],0 (7×) and 10
same,"analgesia score, 15 min",[1]; [8],1
same,"analgesia score, 30 min",[1]; [8],1
same,"analgesia score, 45 min",[1]; [8],1
same,"analgesia score, 105 min",[1]; [8],0
same,"analgesia score, 60 min",[1]; [9],1 (7×) and 10
same,"analgesia score, 75 min",[1]; [9],1 (6×) and 0 and 10
same,"analgesia score, 90 min",[1]; [9],0 (4×) and 10 (2×) and 1 (2×)
same,"analgesia score, 15 min","[1]; per mouse, free BUP 0.25%, 150 ul, 0.375 mg Bup, 15 min",1
same,"analgesia score, 30 min","[1]; per mouse, free BUP 0.25%, 150 ul, 0.375 mg Bup, 30 min",1
same,"analgesia score, 45 min","[1]; per mouse, free BUP 0.25%, 150 ul, 0.375 mg Bup, 45 min",1
same,"analgesia score, 60 min","[1]; per mouse, free BUP 0.25%, 150 ul, 0.375 mg Bup, 60 min, hydrochloride",0 (5×) and 1 (2×) and 10
same,"analgesia score, 75 min","[1]; per mouse, free BUP 0.25%, 150 ul, 0.375 mg Bup, 75 min, hydrochloride",0 (7×) and 10
same,"analgesia score, 90 min","[1]; per mouse, free BUP 0.25%, 150 ul, 0.375 mg Bup, 90 min",0
same,"analgesia score, 15 min","[1]; per mouse, free BUP 0.25%, 300 ul, 0.75 mg Bup, 15 min",1
same,"analgesia score, 30 min","[1]; per mouse, free BUP 0.25%, 300 ul, 0.75 mg Bup, 30 min",1
same,"analgesia score, 45 min","[1]; per mouse, free BUP 0.25%, 300 ul, 0.75 mg Bup, 45 min",1
same,"analgesia score, 60 min","[1]; per mouse, free BUP 0.25%, 300 ul, 0.75 mg Bup, 60 min",1
same,"analgesia score, 75 min","[1]; per mouse, free BUP 0.25%, 300 ul, 0.75 mg Bup, 75 min, hydrochloride",0 and 1 (7×)
same,"analgesia score, 90 min","[1]; per mouse, free BUP 0.25%, 300 ul, 0.75 mg Bup, 90 min, hydrochloride",0 and 1 (5×) and 10 (2×)
same,"analgesia score, 105 min","[1]; per mouse, free BUP 0.25%, 300 ul, 0.75 mg Bup, 105 min, hydrochloride",0 (5×) and 10 and 1 (2×)
same,"analgesia score, 120 min","[1]; per mouse, free BUP 0.25%, 300 ul, 0.75 mg Bup, 120 min, hydrochloride",0 (7×) and 10
same,"analgesia score, 135 min","[1]; per mouse, free BUP 0.25%, 300 ul, 0.75 mg Bup, 135 min",0
same,"analgesia score, 15 min","[1]; per mouse, free BUP 0.50%, 150 ul, 0.75 mg Bup, 15 min",1
same,"analgesia score, 30 min","[1]; per mouse, free BUP 0.50%, 150 ul, 0.75 mg Bup, 30 min",1
same,"analgesia score, 45 min","[1]; per mouse, free BUP 0.50%, 150 ul, 0.75 mg Bup, 45 min",1
same,"analgesia score, 60 min","[1]; per mouse, free BUP 0.50%, 150 ul, 0.75 mg Bup, 60 min, hydrochloride",1 (7×) and 10
same,"analgesia score, 75 min","[1]; per mouse, free BUP 0.50%, 150 ul, 0.75 mg Bup, 75 min, hydrochloride",1 (6×) and 0 and 10
same,"analgesia score, 90 min","[1]; per mouse, free BUP 0.50%, 150 ul, 0.75 mg Bup, 90 min, hydrochloride",0 (4×) and 10 (2×) and 1 (2×)
same,"analgesia score, 105 min","[1]; per mouse, free BUP 0.50%, 150 ul, 0.75 mg Bup, 105 min",0
same,duration of analgesic effect post injection,[2],approximately 75 minutes
same,solubility limit of bupivacaine at pH 5.5,"[3]; 25° C., pH 5.5",below 2.9%
same,solubility of bupivacaine 25° C. at pH 2.0,[3]; pH 2.0,7.5%
same,mass solubility of bupivacaine at 25° C. in pH 5,[3]; pH 5,2.9%
same,mass solubility of bupivacaine at 25° C. in pH 6,[3]; pH 6,0.55%
